Test system: Acinetobacter calcoaceticus
Assay: Antimicrobial activity against Acinetobacter calcoaceticus (GC 756)
Type: functional
Settings: not given

Compound | MIC
CNC[C@H]1OCC[C@H]1SC1=C(C(=O)[O-])N2C(=O)[C@H]([C@@H](C)O)[C@H]2[C@H]1C.[Na+] | 4 µg/mL
C[C@@H](O)[C@H]1C(=O)N2C(C(=O)[O-])=C(SC3COC(C/N=C/N)C3)[C@H](C)[C@H]12.[Na+] (some centres undefined) | 2 µg/mL
CCN1CCN(C(=O)NCC2CC(SC3=C(C(=O)[O-])N4C(=O)[C@H]([C@@H](C)O)[C@H]4[C@H]3C)CO2)C(=O)C1=O.[Na+] (some centres undefined) | 128 µg/mL

Test system: not listed separately
Assay: Antimicrobial activity against Citrobacter freundii (GC 2211)
Type: functional
Settings: not given

Compound | MIC
CNC[C@H]1OCC[C@H]1SC1=C(C(=O)[O-])N2C(=O)[C@H]([C@@H](C)O)[C@H]2[C@H]1C.[Na+] | 0.12 µg/mL
C[C@@H](O)[C@H]1C(=O)N2C(C(=O)[O-])=C(SC3COC(C/N=C/N)C3)[C@H](C)[C@H]12.[Na+] (some centres undefined) | ≤ 0.06 µg/mL
CCN1CCN(C(=O)NCC2CC(SC3=C(C(=O)[O-])N4C(=O)[C@H]([C@@H](C)O)[C@H]4[C@H]3C)CO2)C(=O)C1=O.[Na+] (some centres undefined) | 32 µg/mL

Biological target: T1, Dipeptidase 1 (Sus scrofa) (UniProt P22412)
T1 sequence (whole entry): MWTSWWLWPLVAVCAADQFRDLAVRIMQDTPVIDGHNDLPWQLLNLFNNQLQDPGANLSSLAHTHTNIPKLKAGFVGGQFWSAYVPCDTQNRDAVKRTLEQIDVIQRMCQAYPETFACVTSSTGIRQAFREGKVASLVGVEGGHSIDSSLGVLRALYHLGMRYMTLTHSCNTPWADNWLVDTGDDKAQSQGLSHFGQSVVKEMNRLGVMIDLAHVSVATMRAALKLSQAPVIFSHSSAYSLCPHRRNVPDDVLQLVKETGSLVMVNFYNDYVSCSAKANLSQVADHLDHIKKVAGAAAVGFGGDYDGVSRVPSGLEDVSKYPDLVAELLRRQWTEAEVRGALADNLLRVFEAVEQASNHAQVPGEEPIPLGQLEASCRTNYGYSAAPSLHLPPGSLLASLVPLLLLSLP
Assay: Relative hydrolysis to that of imipenem was determined by hog renal dehydropeptidase
Settings: not given

Compound | Relative hydrolysis
CNC[C@H]1OCC[C@H]1SC1=C(C(=O)[O-])N2C(=O)[C@H]([C@@H](C)O)[C@H]2[C@H]1C.[Na+] | 10
CCN1CCN(C(=O)NCC2CC(SC3=C(C(=O)[O-])N4C(=O)[C@H]([C@@H](C)O)[C@H]4[C@H]3C)CO2)C(=O)C1=O.[Na+] (some centres undefined) | 13

Test system: not listed separately
Assay: Antimicrobial activity against Enterococcus faecium (GC 1182)
Type: functional
Settings: not given

Compound | MIC
CNC[C@H]1OCC[C@H]1SC1=C(C(=O)[O-])N2C(=O)[C@H]([C@@H](C)O)[C@H]2[C@H]1C.[Na+] | > 64 µg/mL
C[C@@H](O)[C@H]1C(=O)N2C(C(=O)[O-])=C(SC3COC(C/N=C/N)C3)[C@H](C)[C@H]12.[Na+] (some centres undefined) | > 128 µg/mL
CCN1CCN(C(=O)NCC2CC(SC3=C(C(=O)[O-])N4C(=O)[C@H]([C@@H](C)O)[C@H]4[C@H]3C)CO2)C(=O)C1=O.[Na+] (some centres undefined) | > 128 µg/mL

Test system: not listed separately
Assay: Antimicrobial activity against Enterobacter cloacae (GC 2209)
Type: functional
Settings: not given

Compound | MIC
CNC[C@H]1OCC[C@H]1SC1=C(C(=O)[O-])N2C(=O)[C@H]([C@@H](C)O)[C@H]2[C@H]1C.[Na+] | ≤ 0.06 µg/mL
C[C@@H](O)[C@H]1C(=O)N2C(C(=O)[O-])=C(SC3COC(C/N=C/N)C3)[C@H](C)[C@H]12.[Na+] (some centres undefined) | ≤ 0.06 µg/mL
CCN1CCN(C(=O)NCC2CC(SC3=C(C(=O)[O-])N4C(=O)[C@H]([C@@H](C)O)[C@H]4[C@H]3C)CO2)C(=O)C1=O.[Na+] (some centres undefined) | 8 µg/mL

Test system: not listed separately
Assay: Antimicrobial activity against Enterococcus faecalis (GC 842)
Type: functional
Settings: not given

Compound | MIC
CNC[C@H]1OCC[C@H]1SC1=C(C(=O)[O-])N2C(=O)[C@H]([C@@H](C)O)[C@H]2[C@H]1C.[Na+] | 0.5 µg/mL
C[C@@H](O)[C@H]1C(=O)N2C(C(=O)[O-])=C(SC3COC(C/N=C/N)C3)[C@H](C)[C@H]12.[Na+] (some centres undefined) | 2 µg/mL
CCN1CCN(C(=O)NCC2CC(SC3=C(C(=O)[O-])N4C(=O)[C@H]([C@@H](C)O)[C@H]4[C@H]3C)CO2)C(=O)C1=O.[Na+] (some centres undefined) | 16 µg/mL

Test system: Escherichia coli
Assay: Antimicrobial activity against Escherichia coli (ATCC 25922)
Type: functional
Settings: not given

Compound | MIC
CNC[C@H]1OCC[C@H]1SC1=C(C(=O)[O-])N2C(=O)[C@H]([C@@H](C)O)[C@H]2[C@H]1C.[Na+] | ≤ 0.06 µg/mL
C[C@@H](O)[C@H]1C(=O)N2C(C(=O)[O-])=C(SC3COC(C/N=C/N)C3)[C@H](C)[C@H]12.[Na+] (some centres undefined) | ≤ 0.06 µg/mL
CCN1CCN(C(=O)NCC2CC(SC3=C(C(=O)[O-])N4C(=O)[C@H]([C@@H](C)O)[C@H]4[C@H]3C)CO2)C(=O)C1=O.[Na+] (some centres undefined) | 2 µg/mL

Test system: Escherichia coli
Assay: Antimicrobial activity against Escherichia coli (GC 1792)
Type: functional
Settings: not given

Compound | MIC
CNC[C@H]1OCC[C@H]1SC1=C(C(=O)[O-])N2C(=O)[C@H]([C@@H](C)O)[C@H]2[C@H]1C.[Na+] | ≤ 0.06 µg/mL
C[C@@H](O)[C@H]1C(=O)N2C(C(=O)[O-])=C(SC3COC(C/N=C/N)C3)[C@H](C)[C@H]12.[Na+] (some centres undefined) | ≤ 0.06 µg/mL
CCN1CCN(C(=O)NCC2CC(SC3=C(C(=O)[O-])N4C(=O)[C@H]([C@@H](C)O)[C@H]4[C@H]3C)CO2)C(=O)C1=O.[Na+] (some centres undefined) | 4 µg/mL

Test system: Escherichia coli
Assay: Antimicrobial activity against Escherichia coli (GC 2205)
Type: functional
Settings: not given

Compound | MIC
CNC[C@H]1OCC[C@H]1SC1=C(C(=O)[O-])N2C(=O)[C@H]([C@@H](C)O)[C@H]2[C@H]1C.[Na+] | ≤ 0.06 µg/mL
C[C@@H](O)[C@H]1C(=O)N2C(C(=O)[O-])=C(SC3COC(C/N=C/N)C3)[C@H](C)[C@H]12.[Na+] (some centres undefined) | ≤ 0.06 µg/mL
CCN1CCN(C(=O)NCC2CC(SC3=C(C(=O)[O-])N4C(=O)[C@H]([C@@H](C)O)[C@H]4[C@H]3C)CO2)C(=O)C1=O.[Na+] (some centres undefined) | 0.25 µg/mL

Test system: not listed separately
Assay: Antimicrobial activity against Morganella morganii (GC 2213)
Type: functional
Settings: not given

Compound | MIC
CNC[C@H]1OCC[C@H]1SC1=C(C(=O)[O-])N2C(=O)[C@H]([C@@H](C)O)[C@H]2[C@H]1C.[Na+] | 0.5 µg/mL
C[C@@H](O)[C@H]1C(=O)N2C(C(=O)[O-])=C(SC3COC(C/N=C/N)C3)[C@H](C)[C@H]12.[Na+] (some centres undefined) | 0.5 µg/mL
CCN1CCN(C(=O)NCC2CC(SC3=C(C(=O)[O-])N4C(=O)[C@H]([C@@H](C)O)[C@H]4[C@H]3C)CO2)C(=O)C1=O.[Na+] (some centres undefined) | 16 µg/mL

Test system: Pseudomonas aeruginosa
Assay: Antimicrobial activity against Pseudomonas aeruginosa (ATCC 27853)
Type: functional
Settings: not given

Compound | MIC
CNC[C@H]1OCC[C@H]1SC1=C(C(=O)[O-])N2C(=O)[C@H]([C@@H](C)O)[C@H]2[C@H]1C.[Na+] | 8 µg/mL
C[C@@H](O)[C@H]1C(=O)N2C(C(=O)[O-])=C(SC3COC(C/N=C/N)C3)[C@H](C)[C@H]12.[Na+] (some centres undefined) | 8 µg/mL
CCN1CCN(C(=O)NCC2CC(SC3=C(C(=O)[O-])N4C(=O)[C@H]([C@@H](C)O)[C@H]4[C@H]3C)CO2)C(=O)C1=O.[Na+] (some centres undefined) | > 128 µg/mL

Test system: Pseudomonas aeruginosa
Assay: Antimicrobial activity against Pseudomonas aeruginosa (GC 1544 OprD)
Type: functional
Settings: not given

Compound | MIC
CNC[C@H]1OCC[C@H]1SC1=C(C(=O)[O-])N2C(=O)[C@H]([C@@H](C)O)[C@H]2[C@H]1C.[Na+] | 32 µg/mL
C[C@@H](O)[C@H]1C(=O)N2C(C(=O)[O-])=C(SC3COC(C/N=C/N)C3)[C@H](C)[C@H]12.[Na+] (some centres undefined) | 16 µg/mL
CCN1CCN(C(=O)NCC2CC(SC3=C(C(=O)[O-])N4C(=O)[C@H]([C@@H](C)O)[C@H]4[C@H]3C)CO2)C(=O)C1=O.[Na+] (some centres undefined) | 128 µg/mL

Test system: Staphylococcus aureus
Assay: Antimicrobial activity against Staphylococcus aureus (ATCC 29213)
Type: functional
Settings: not given

Compound | MIC
CNC[C@H]1OCC[C@H]1SC1=C(C(=O)[O-])N2C(=O)[C@H]([C@@H](C)O)[C@H]2[C@H]1C.[Na+] | ≤ 0.06 µg/mL
C[C@@H](O)[C@H]1C(=O)N2C(C(=O)[O-])=C(SC3COC(C/N=C/N)C3)[C@H](C)[C@H]12.[Na+] (some centres undefined) | ≤ 0.06 µg/mL
CCN1CCN(C(=O)NCC2CC(SC3=C(C(=O)[O-])N4C(=O)[C@H]([C@@H](C)O)[C@H]4[C@H]3C)CO2)C(=O)C1=O.[Na+] (some centres undefined) | 0.5 µg/mL

Test system: Staphylococcus aureus
Assay: Antimicrobial activity against methicillin - resistant Staphylococcus aureus (GC 2220)
Type: functional
Settings: not given

Compound | MIC
CNC[C@H]1OCC[C@H]1SC1=C(C(=O)[O-])N2C(=O)[C@H]([C@@H](C)O)[C@H]2[C@H]1C.[Na+] | 1 µg/mL
C[C@@H](O)[C@H]1C(=O)N2C(C(=O)[O-])=C(SC3COC(C/N=C/N)C3)[C@H](C)[C@H]12.[Na+] (some centres undefined) | 8 µg/mL
CCN1CCN(C(=O)NCC2CC(SC3=C(C(=O)[O-])N4C(=O)[C@H]([C@@H](C)O)[C@H]4[C@H]3C)CO2)C(=O)C1=O.[Na+] (some centres undefined) | 32 µg/mL

Test system: not listed separately
Assay: Antimicrobial activity against Xanthomonas maltophilia (GC 562)
Type: functional
Settings: Stenotrophomonas maltophilia

Compound | MIC
CNC[C@H]1OCC[C@H]1SC1=C(C(=O)[O-])N2C(=O)[C@H]([C@@H](C)O)[C@H]2[C@H]1C.[Na+] | > 128 µg/mL
C[C@@H](O)[C@H]1C(=O)N2C(C(=O)[O-])=C(SC3COC(C/N=C/N)C3)[C@H](C)[C@H]12.[Na+] (some centres undefined) | > 128 µg/mL
CCN1CCN(C(=O)NCC2CC(SC3=C(C(=O)[O-])N4C(=O)[C@H]([C@@H](C)O)[C@H]4[C@H]3C)CO2)C(=O)C1=O.[Na+] (some centres undefined) | > 128 µg/mL
